Measured values from patent publication US8791113B2, “2,4-diaryl-substituted [1,8] naphthyridines as kinase inhibitors for use against cancer” (Merck Patent GmbH, priority 2010, dated 2014).
Counter-ions that a name gives are not always drawn. Like-named read-outs stand apart in the source and are kept apart here.

Assays:
[1] = tested on: TGF-beta-induced phosphorylation of Smad2 (Ser465/467) and Smad3 (Ser423/425) in Mv1-Lu cells; experiment: Inhibition of Smad2/3 phosphorylation in Mv1Lu cells (PathScan Phospho-Smad2 ELISA); type: cell-based, mink Mustela vison; conditions: Neogale vison, read-out: TβR activity (Example 51)
Procedure: Inhibition of Smad2/3 Phosphorylation in Mv1 Lu Cells by TGF-Beta Receptor I Kinase Inhibitors
This assay was used to determine the inhibitory potency of compounds on TGF-beta-induced phosphorylation of Smad2 (Ser465/467) and Smad3 (Ser423/425). Mv1-Lu cells (lung epithelial cell line from mink Mustela vison; ATCC number: CCL-64) were seeded in DMEM (Invitrogen) supplemented with 10% fetal bovine serum (Pan Biotech) at a defined cell density in 24-well or 96-well plates (24-well plate: 1.5×10^5 cells per well; 96-well plate: 4×10^4 cells per well). Cell cultures were incubated in DMEM at 37° C. and 10% CO2. On the next day, the medium was replaced and cells were serum-starved for 16-20 hours. The following day, serial dilutions of compounds were added to the wells, pre-incubated for 1.5 hrs before recombinant TGF-beta 1 ligand (final concentration 5 ng/ml; R&D systems) was added. After one hour of ligand stimulation, lysates were prepared and analyzed using an enzyme-linked immunosorbent assay kit (PathScan Phospho-Smad2 Kit, Cell Signaling Technologies). The ELISA detects phosphorylated Smad2 as well as phosphorylated Smad3 with the phospho-specific antibody. TGF-beta stimulated cells and unstimulated cells served as positive and negative controls (100% and background control). The concentration of the vehicle DMSO was kept constant at 0.2% (v/v) in all wells. Dose-response relationships were fitted using curve fitting algorithms of the RS1 statistics software package (Brooks Automation Inc. RS/1- Statistical Tools Handbook. Release 6.2) to determine the concentration at which half-maximal inhibition (IC50) of Smad2/3 phosphorylation was achieved.

[2] = target: T1, GST-ALK5 (TGF-beta receptor kinase) (Homo sapiens, UniProt P36897); experiment: In-vitro (enzyme) kinase flashplate assay: GST-ALK5 phosphorylation of GST-SMAD2 with 33P-ATP; type: biochemical; conditions: 384-well flashplate kinase assay, GST-ALK5 / GST-SMAD2, 33P-ATP, 30° C., 45 min; read-out: TβR activity (Example 50)
T1 sequence (P36897 34-503): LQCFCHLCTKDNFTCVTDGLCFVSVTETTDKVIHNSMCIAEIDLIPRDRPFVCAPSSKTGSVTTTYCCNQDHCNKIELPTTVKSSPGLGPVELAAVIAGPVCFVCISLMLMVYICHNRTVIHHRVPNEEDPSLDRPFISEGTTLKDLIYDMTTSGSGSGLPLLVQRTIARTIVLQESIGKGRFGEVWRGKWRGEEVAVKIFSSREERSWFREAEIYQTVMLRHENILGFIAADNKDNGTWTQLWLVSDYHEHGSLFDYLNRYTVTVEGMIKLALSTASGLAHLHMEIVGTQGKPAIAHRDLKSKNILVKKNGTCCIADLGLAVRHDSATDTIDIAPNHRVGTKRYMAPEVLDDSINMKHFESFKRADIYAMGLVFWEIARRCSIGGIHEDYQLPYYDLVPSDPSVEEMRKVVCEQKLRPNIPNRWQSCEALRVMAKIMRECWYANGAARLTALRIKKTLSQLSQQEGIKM
Procedure: In-vitro (Enzyme) Assay for Determination of the Efficacy of Inhibitors of the Inhibition of TGF-Beta-Mediated Effects
The kinase assay was carried out as 384-well flashplate assay. 31.2 nM of GST-ALK5, 439 nM of GST-SMAD2 and 3 mM of ATP (with 0.3 μCi of ^33P-ATP/well) were incubated in a total volume of 35 μl (20 mM of HEPES, 10 mM of MgCl2, 5 mM of MnCl2, 1 mM of DTT, 0.1% of BSA, pH 7.4) without or with test substance (5-10 concentrations) at 30° C. for 45 min. The reaction was stopped using 25 μl of 200 mM EDTA solution, filtered with suction at room temperature after 30 min, and the wells were washed with 3 times 100 μl of 0.9% NaCl solution. Radioactivity was measured in the TopCount. The IC50 values were calculated using RS1.

[3] = Mv1-Lu cells, TGF-beta 1 5 ng/ml, Phospho-Smad2/3 ELISA

| SMILES | IC50 [1, 3] [nM] | IC50 [2] [nM] | IC50 [1] [nM] |
| --- | --- | --- | --- |
| O=c1c2cnccc2c(-c2cc(-c3cc(Cl)ccc3F)nc3ncccc23)cn1CCO [Compound 68, 4-[2-(5-Chloro-2-fluoro-phenyl)-[1,8]naphthyridin-4-yl]-2-(2-hydroxy-ethyl)-2H-[2,7]naphthyridin-1-one] | < 1000 | < 1000 | – |
| Cn1cc(-c2cnc3nc(-c4ccccc4F)cc(-c4nccc5c(N)nccc45)c3c2)cn1 [Compound 116, 5-[2-(2-Fluoro-phenyl)-6-(1-methyl-1H-pyrazol-4-yl)-[1,8]naphthyridin-4-yl]-[2,6]naphthyridin-1-ylamine] | > 10000 | > 10000 | – |
| Cc1ccc(-c2cc(-c3nccc4c(N)nccc34)c3cccnc3n2)o1 [Compound 84, 5-[2-(5-Methyl-furan-2-yl)-[1,8]naphthyridin-4-yl]-[2,6]naphthyridin-1-ylamine] | < 1000 | < 1000 | – |
| Nc1cc2cnccc2c(-c2cc(-c3ccccc3F)nc3ncccc23)n1 [Compound 66, 1-[2-(2-Fluoro-phenyl)-[1,8]naphthyridin-4-yl]-[2,6]naphthyridin-3-ylamine] | < 1000 | < 1000 | – |
| O=c1c2cnccc2c(-c2cc(-c3cc(Cl)ccc3F)nc3ncccc23)cn1CCCO [Compound 75, 4-[2-(5-Chloro-2-fluoro-phenyl)-[1,8]naphthyridin-4-yl]-2-(3-hydroxy-propyl)-2H-[2,7]naphthyridin-1-one] | < 1000 | < 1000 | – |
| Nc1nccc2c(-c3cc(-c4cc(C(F)(F)F)ccc4F)nc4ncccc34)cccc12 [Compound 8, 5-[2-(2-Fluoro-5-trifluoromethyl-phenyl)-[1,8]naphthyridin-4-yl]-isoquinolin-1-ylamine] | < 1000 | < 1000 | – |
| Fc1ccc(Cl)cc1-c1cc(-c2ncnc3cnccc23)c2cccnc2n1 [Compound 24, 4-[2-(5-Chloro-2-fluoro-phenyl)-[1,8]naphthyridin-4-yl]-pyrido[3,4-d]pyrimidine] | 1000 to 10000 | < 1000 | – |
| Nc1nccc2c(-c3cc(-c4ccccc4Cl)nc4ncccc34)nccc12 [Compound 90, 5-[2-(2-Chloro-phenyl)-[1,8]naphthyridin-4-yl]-[2,6]naphthyridin-1-ylamine] | 1000 to 10000 | < 1000 | – |
| Fc1ccc(Cl)cc1-c1cc(-c2ccc(OCCN3CCCC3)c3cnccc23)c2cccnc2n1 [Compound 102, 2-(5-Chloro-2-fluoro-phenyl)-4-[8-(2-pyrrolidin-1-yl-ethoxy)-isoquinolin-5-yl]-[1,8]naphthyridine] | < 1000 | < 1000 | – |
| O=c1c2cnccc2c(-c2cc(-c3cc(Cl)ccc3F)nc3ncccc23)cn1CCN1CCOCC1 [Compound 76, 4-[2-(5-Chloro-2-fluoro-phenyl)-[1,8]naphthyridin-4-yl]-2-(2-morpholin-4-yl-ethyl)-2H-[2,7]naphthyridin-1-one] | 1000 to 10000 | 1000 to 10000 | – |
| Fc1ccccc1-c1cc(-c2ccnc3cnccc23)c2cccnc2n1 [Compound 111, 4-[2-(2-Fluoro-phenyl)-[1,8]naphthyridin-4-yl]-[1,7]naphthyridine] | > 10000 | < 1000 | – |
| Fc1ccc(Cl)cc1-c1cc(-c2cnc(OCCN3CCOCC3)c3cnccc23)c2cccnc2n1 [Compound 77, 2-(5-Chloro-2-fluoro-phenyl)-4-[1-(2-morpholin-4-yl-ethoxy)-[2,7]naphthyridin-4-yl]-[1,8]naphthyridine] | < 1000 | < 1000 | – |
| Nc1ccc2c(-c3cccc4c(N)nccc34)cc(-c3ccccc3F)nc2n1 [Compound 117, 5-(1-Amino-isoquinolin-5-yl)-7-(2-fluoro-phenyl)-[1,8]naphthyridin-2-ylamine] | < 1000 | < 1000 | – |
| O=c1c2cnccc2c(-c2cc(-c3ccccc3F)nc3ncccc23)cn1CCO [Compound 67, 4-[2-(2-Fluoro-phenyl)-[1,8]naphthyridin-4-yl]-2-(2-hydroxy-ethyl)-2H-[2,7]naphthyridin-1-one] | 1000 to 10000 | < 1000 | – |
| Fc1ccccc1-c1cc(-c2cnc(OCCN3CCOCC3)c3cnccc23)c2cccnc2n1 [Compound 78, 2-(2-Fluoro-phenyl)-4-[1-(2-morpholin-4-yl-ethoxy)-[2,7]naphthyridin-4-yl]-[1,8]naphthyridine] | 1000 to 10000 | < 1000 | – |
| Fc1ccc(Cl)cc1-c1cc(-c2cc(OCCN3CCOCC3)nc3cnccc23)c2cccnc2n1 [Compound 112, 4-[2-(5-Chloro-2-fluoro-phenyl)-[1,8]naphthyridin-4-yl]-2-(2-morpholin-4-yl-ethoxy)-[1,7]naphthyridine] | < 1000 | < 1000 | – |
| Nc1nccc2c(-c3cc(-c4cc(Cl)ccc4F)nc4ncccc34)cccc12 [Compound 4, 5-[2-(5-Chloro-2-fluoro-phenyl)-[1,8]naphthyridin-4-yl]-isoquinolin-1-ylamine] | < 1000 | < 1000 | – |
| O=c1c2cnccc2c(-c2cc(-c3cc(F)ccc3F)nc3ncccc23)cn1CCO [Compound 72, 4-[2-(2,5-Difluoro-phenyl)-[1,8]naphthyridin-4-yl]-2-(2-hydroxy-ethyl)-2H-[2,7]naphthyridin-1-one] | < 1000 | < 1000 | – |
| c1coc(-c2cc(-c3c[nH]c4cnccc34)c3cccnc3n2)c1 [Compound 101, 2-Furan-2-yl-4-(1H-pyrrolo[2,3-c]pyridin-3-yl)-[1,8]naphthyridine] | < 1000 | < 1000 | – |
| CCN(CC)CCOc1ccc(-c2cc(-c3cc(Cl)ccc3F)nc3ncccc23)c2ccncc12 [Compound 86, (2-{5-[2-(5-Chloro-2-fluoro-phenyl)-[1,8]naphthyridin-4-yl]-isoquinolin-8-yloxy}-ethyl)-diethyl-amine] | < 1000 | < 1000 | – |
| O=c1[nH]cc(-c2cc(-c3cc(Cl)ccc3F)nc3ncccc23)c2ccncc12 [Compound 89, 4-[2-(5-Chloro-2-fluoro-phenyl)-[1,8]naphthyridin-4-yl]-2H-[2,7]naphthyridin-1-one] | < 1000 | < 1000 | – |
| Nc1nccc2c(-c3cc(-c4ccccc4F)nc4ncccc34)cccc12 [Compound 9, 5-[2-(2-Fluoro-phenyl)-[1,8]naphthyridin-4-yl]-isoquinolin-1-ylamine] | < 1000 | < 1000 | – |
| Fc1ccccc1-c1cc(-c2ccc(OCCN3CCOCC3)c3cnccc23)c2cccnc2n1 [Compound 25, 2-(2-fluoro-phenyl)-4-[8-(2-morpholin-4-yl-ethoxy)-isoquinolin-5-yl]-[1,8]naphthyridine] | < 1000 | < 1000 | – |
| Nc1nccc2c(-c3cc(-c4cc(Cl)ccc4F)nc4ncccc34)coc12 [Compound 13, 3-[2-(5-Chloro-2-fluoro-phenyl)-[1,8]naphthyridin-4-yl]-furo[2,3-c]pyridin-7-ylamine] | < 1000 | < 1000 | – |
| Cc1ccn(-c2cc(-c3c[nH]c4cnccc34)c3cccnc3n2)n1 [Compound 118, 2-(3-Methyl-pyrazol-1-yl)-4-(1H-pyrrolo[2,3-c]pyridin-3-yl)-[1,8]naphthyridine] | < 1000 | < 1000 | – |
| Cc1cccc(-c2cc(-c3nccc4c(N)nccc34)c3cccnc3n2)n1 [Compound 21, 5-[2-(6-Methyl-pyridin-2-yl)-[1,8]naphthyridin-4-yl]-[2,6]naphthyridin-1-ylamine hydrochloride] | – | < 1000 | < 1000 |
